From patent publication US10517889B2, “Modulators of SMAD7 expression” (Ionis Pharmaceuticals, Inc., priority 2017, dated 2019)

Key:
human SMAD7 mRNA = assay: Antisense inhibition of human SMAD7 mRNA expression in Hep3B cells by 3-10-3 cEt gapmers, 10,000 nM, electroporation (Example 2); type: cell-based; settings: approximately 24 hours
In short: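 Hep3B cells (20,000/well) were electroporated with 10,000 nM 3-10-3 cEt gapmer (16-mer, phosphorothioate, 5-methylcytosines) and harvested after about 24 h. SMAD7 mRNA quantified by RT-qPCR with primer probe set RTS5062, normalized to total RNA by RiboGreen; percent inhibition relative to untreated cells.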

dog SMAD7 mRNA = assay: Pharmacology: dog SMAD7 mRNA expression in liver, kidney, duodenum, ileum and colon after subcutaneous administration in beagle dogs (Example 8); type: in vivo; settings: 30 mg/kg subcutaneous, necropsy, normalized to HPRT1
Procedure: (§1) There were 4 animals per group.
The pharmacological activity of the Ionis oligonucleotides in dogs was assessed by measuring dog SMAD7 mRNA expression in liver, kidney, duodenum, ileum, and colon at necropsy. All the human ASOs used are complementary to dog SMAD7 mRNA.
Tissue samples from all dogs were analyzed for SMAD7 mRNA expression using the primer probe set RTS34649 (forward sequence […], designated SEQ ID NO: 2740; reverse sequence […], designated SEQ ID NO: 2741; probe sequence […], designated SEQ ID NO: 2742), which was normalized to mRNA levels of the housekeeping gene, HPRT1. One-way ANOVA with Dunnet's comparison test was used for statistical analysis.

[1] = Oligonucleotide concentrations in tissues by LC-MS/MS after oral gavage in CD-1 mice (Example 7); type: in vivo; settings: 500 mg/kg oral gavage once daily for 4 weeks, 48 hours after last dose
Procedure: (§2) Groups of 7-8 week old male CD-1 mice were given an oral gavage dose once daily for 4 weeks of 500 mg/kg of Ionis SMAD7 oligonucleotides. Each group contained 8 mice. One group of male CD-1 mice was administered saline by oral gavage daily.
Oligonucleotide concentrations were detected in various tissues by LC-MS/MS analysis. The greatest concentration was found in the kidney, followed by the colon.

[2] = Oligonucleotide concentration in liver and colon by LC-MS/MS after subcutaneous administration in CD-1 mice (Example 6); type: in vivo; settings: 50 mg/kg subcutaneously twice a week for 7 weeks, 48 hours after the last dose
Procedure: Groups of 8-9 week old male CD-1 mice were injected subcutaneously twice a week for 7 weeks with 50 mg/kg of Ionis oligonucleotides (100 mg/kg/week dose). Each group contained 4 mice. One group of male CD-1 mice was injected subcutaneously twice a week for 7 weeks with PBS. Plasma was collected for analysis on day 28.
Oligonucleotide concentrations in the liver and colon were analyzed using LC-MS/MS method.

[3] = Plasma chemistry markers after subcutaneous administration in beagle dogs (Example 8); settings: 30 mg/kg subcutaneous days 1, 3, 5, 8, 15, 22, 29, plasma at day 31
Procedure: Groups of 24-25 week old male beagle dogs were injected subcutaneously with 30 mg/kg ION Ionis oligonucleotide. There were 4 animals per group. Dogs were injected every two days for the first week (day 1, 3, and 5) and once weekly thereafter (days 8, 15, 22, and 29). A control group of dogs received subcutaneous injections of PBS. Dogs were sacrificed on day 31 approximately 48 hours after the final dose and organs and plasma were harvested for further analysis.
To evaluate the effect of Ionis SMAD7 oligonucleotides on liver and kidney function, plasma levels of transaminases, albumin, creatine and BUN were measured using an automated clinical chemistry analyzer (Toshiba 200FR Neo chemistry analyzer, Toshiba Co., Japan).

[4] = Hematology assays after oral gavage in CD-1 mice (Example 7); type: in vivo; set-up: RBC: unit not given here; settings: 500 mg/kg oral gavage once daily for 4 weeks
Procedure: as §2
Blood obtained from all mouse groups was measured by an ADVIA2120i hematology analyzer (Siemens, USA) for measurements of the various blood cells, as well as other hematology markers. None of the Ionis SMAD7 oligonucleotides caused changes in the levels of any of the hematology markers outside the expected range for antisense oligonucleotides.

[5] = Body and organ weights after subcutaneous administration in beagle dogs (Example 8); type: in vivo; settings: 30 mg/kg subcutaneous days 1, 3, 5, 8, 15, 22, 29, end of study
Procedure: as §1
Body weights as well as kidney, spleen, liver (with gall bladder), mesenteric lymph node, heart, and thymus weights were measured at the end of the study. […] Ionis SMAD7 oligonucleotides that caused any changes in organ weights outside the expected range for antisense oligonucleotides were excluded from further studies.

[6] = Body and organ weights after oral gavage in CD-1 mice (Example 7); type: in vivo; settings: 500 mg/kg oral gavage once daily for 4 weeks, end of study
Procedure: as §2
Final body weights were measured at the end of the study. There was no significant difference in the body weight of the mice treated with antisense oligonucleotide compared to the control.
None of the Ionis SMAD7 oligonucleotides caused any changes in organ weights outside the expected range for antisense oligonucleotides.

[7] = SMAD7 mRNA, Hep3B cells, 10,000 nM antisense oligonucleotide, electroporation, primer probe set RTS5062, relative to untreated control cells

790615 (CCAATGAGAATGCTTC; 3-10-3 cEt gapmer, further chemistry not given here) [compound 790615]
% Inhibition (human SMAD7 mRNA; Hep3B cells, electroporation with 10,000 nM antisense oligonucleotide, primer probe set RTS5062, relative to untreated control cells): 38% | % Inhibition (human SMAD7 mRNA; [7]): 40% | % inhibition of SMAD7 mRNA expression (compared to control), Distal colon (dog SMAD7 mRNA): 31% | % inhibition of SMAD7 mRNA expression (compared to control), Duodenum (dog SMAD7 mRNA): 35% | % inhibition of SMAD7 mRNA expression (compared to control), Ileum (dog SMAD7 mRNA): 0% | % inhibition of Smad7 mRNA expression (compared to control), Kidney (dog SMAD7 mRNA): 37% | % inhibition of Smad7 mRNA expression (compared to control), Liver (dog SMAD7 mRNA): 9% | % inhibition of SMAD7 mRNA expression (compared to control), Proximal colon (dog SMAD7 mRNA): 41% | Oligonucleotide concentration, Colon [1]: 2.9 µg/g | Oligonucleotide concentration, Duodenum [1]: 0.9 µg/g | Oligonucleotide concentration, Ileum [1]: 1.6 µg/g | Oligonucleotide concentration, Kidney [1]: 23.6 µg/g | Oligonucleotide concentration, Liver [1]: 2.8 µg/g | Oligonucleotide concentration, Colon [2]: 13 μg/g tissue | Oligonucleotide concentration, Liver [2]: 75 μg/g tissue | ALT [3]: 38 IU/L | AST [3]: 41 IU/L | Albumin [3]: 3.4 g/dL | BUN [3]: 15.7 mg/dL | Bilirubin [3]: 0.2 mg/dL | Creatine [3]: 0.8 mg/dL | Basophils [4]: 0.01 10^3/μL | Eosinophils [4]: 0.11 10^3/μL | Hematocrit [4]: 52.2% | Hemoglobin [4]: 15.2 g/dL | Lymphocytes [4]: 78.3% | MCH [4]: 15.0 pg | MCHC [4]: 29.1 g/dL | MCV [4]: 51.6 fL | Monocytes [4]: 0.15 10^3/μL | Neutrophils [4]: 16.0% | RBC [4]: 10.1 | Reticulocytes [4]: 2.8% | WBC [4]: 5.4 10^3/μL | platelets [4]: 1033 10^3/μL | Body weight [5]: 7372 g | Heart weight [5]: 63.6 g | Kidney weight [5]: 44.1 g | Liver weight [5]: 253.7 g | Mesenteric LN weight [5]: 10.2 g | Spleen weight [5]: 32.3 g | Thymus weight [5]: 9.9 g | Body weight [6]: 35 g | Heart weight [6]: 0.17 g | Kidneys weight [6]: 0.64 g | Liver with gallbladder weight [6]: 1.88 g | Spleen weight [6]: 0.11 g

798781 (CGTAAGATTCACAGCA; 3-10-3 cEt gapmer, further chemistry not given here) [compound 798781]
% Inhibition (human SMAD7 mRNA; Hep3B cells, electroporation with 10,000 nM antisense oligonucleotide, SMAD7 mRNA by RT-PCR (RTS5062), relative to untreated control cells): 52% | % Inhibition (human SMAD7 mRNA; [7]): 69% | % inhibition of SMAD7 mRNA expression (compared to control), Distal colon (dog SMAD7 mRNA): 34% | % inhibition of SMAD7 mRNA expression (compared to control), Duodenum (dog SMAD7 mRNA): 0% | % inhibition of SMAD7 mRNA expression (compared to control), Ileum (dog SMAD7 mRNA): 0% | % inhibition of Smad7 mRNA expression (compared to control), Kidney (dog SMAD7 mRNA): 28% | % inhibition of Smad7 mRNA expression (compared to control), Liver (dog SMAD7 mRNA): 0% | % inhibition of SMAD7 mRNA expression (compared to control), Proximal colon (dog SMAD7 mRNA): 26% | Oligonucleotide concentration, Colon [1]: 4.4 µg/g | Oligonucleotide concentration, Duodenum [1]: 0.7 µg/g | Oligonucleotide concentration, Ileum [1]: 2.9 µg/g | Oligonucleotide concentration, Kidney [1]: 45.2 µg/g | Oligonucleotide concentration, Liver [1]: 2.9 µg/g | Oligonucleotide concentration, Colon [2]: 63 μg/g tissue | Oligonucleotide concentration, Liver [2]: 312 μg/g tissue | ALT [3]: 32 IU/L | AST [3]: 45 IU/L | Albumin [3]: 3.0 g/dL | BUN [3]: 19.4 mg/dL | Bilirubin [3]: 0.2 mg/dL | Creatine [3]: 0.9 mg/dL | Basophils [4]: 0.02 10^3/μL | Eosinophils [4]: 0.26 10^3/μL | Hematocrit [4]: 52.0% | Hemoglobin [4]: 15.2 g/dL | Lymphocytes [4]: 74.0% | MCH [4]: 15.1 pg | MCHC [4]: 29.1 g/dL | MCV [4]: 51.7 fL | Monocytes [4]: 0.18 10^3/μL | Neutrophils [4]: 18.0% | RBC [4]: 10.1 | Reticulocytes [4]: 3.0% | WBC [4]: 5.7 10^3/μL | platelets [4]: 1099 10^3/μL | Body weight [5]: 6661 g | Heart weight [5]: 53.4 g | Kidney weight [5]: 40.0 g | Liver weight [5]: 242.9 g | Mesenteric LN weight [5]: 7.8 g | Spleen weight [5]: 26.4 g | Thymus weight [5]: 6.0 g | Body weight [6]: 35 g | Heart weight [6]: 0.17 g | Kidneys weight [6]: 0.64 g | Liver with gallbladder weight [6]: 1.86 g | Spleen weight [6]: 0.09 g

829994 (GGAGGCAGGGCCGCGA; 3-10-3 cEt gapmer, further chemistry not given here) [compound 829994]
% Inhibition (human SMAD7 mRNA; SMAD7 mRNA, Hep3B cells, electroporation with 10,000 nM antisense oligonucleotide, primer probe set RTS5062, relative to untreated control cells): 68% | % inhibition of SMAD7 mRNA expression (compared to control), Distal colon (dog SMAD7 mRNA): 29% | % inhibition of SMAD7 mRNA expression (compared to control), Duodenum (dog SMAD7 mRNA): 2% | % inhibition of SMAD7 mRNA expression (compared to control), Ileum (dog SMAD7 mRNA): 32% | % inhibition of Smad7 mRNA expression (compared to control), Kidney (dog SMAD7 mRNA): 0% | % inhibition of Smad7 mRNA expression (compared to control), Liver (dog SMAD7 mRNA): 0% | % inhibition of SMAD7 mRNA expression (compared to control), Proximal colon (dog SMAD7 mRNA): 34% | Oligonucleotide concentration, Colon [1]: 5.7 µg/g | Oligonucleotide concentration, Duodenum [1]: 0.8 µg/g | Oligonucleotide concentration, Ileum [1]: 4.0 µg/g | Oligonucleotide concentration, Kidney [1]: 9.8 µg/g | Oligonucleotide concentration, Liver [1]: 1.3 µg/g | Oligonucleotide concentration, Colon [2]: 11 μg/g tissue | Oligonucleotide concentration, Liver [2]: 45 μg/g tissue | ALT [3]: 62 IU/L | AST [3]: 52 IU/L | Albumin [3]: 3.1 g/dL | BUN [3]: 15.4 mg/dL | Bilirubin [3]: 0.1 mg/dL | Creatine [3]: 0.7 mg/dL | Basophils [4]: 0.01 10^3/μL | Eosinophils [4]: 0.09 10^3/μL | Hematocrit [4]: 51.5% | Hemoglobin [4]: 15.2 g/dL | Lymphocytes [4]: 80.4% | MCH [4]: 15.1 pg | MCHC [4]: 29.5 g/dL | MCV [4]: 51.2 fL | Monocytes [4]: 0.10 10^3/μL | Neutrophils [4]: 14.0% | RBC [4]: 10.1 | Reticulocytes [4]: 3.0% | WBC [4]: 4.1 10^3/μL | platelets [4]: 1219 10^3/μL | Body weight [5]: 7335 g | Heart weight [5]: 57.9 g | Kidney weight [5]: 39.1 g | Liver weight [5]: 250.0 g | Mesenteric LN weight [5]: 9.0 g | Spleen weight [5]: 22.8 g | Thymus weight [5]: 6.3 g | Body weight [6]: 35 g | Heart weight [6]: 0.18 g | Kidneys weight [6]: 0.62 g | Liver with gallbladder weight [6]: 2.02 g | Spleen weight [6]: 0.11 g
